These results are taken from article PMC8642284 (Structure (London, England : 1993), 2021).

One data set has as its target T1, ACAT2 (Homo sapiens, UniProt O75908).
T1 sequence (O75908 1-522): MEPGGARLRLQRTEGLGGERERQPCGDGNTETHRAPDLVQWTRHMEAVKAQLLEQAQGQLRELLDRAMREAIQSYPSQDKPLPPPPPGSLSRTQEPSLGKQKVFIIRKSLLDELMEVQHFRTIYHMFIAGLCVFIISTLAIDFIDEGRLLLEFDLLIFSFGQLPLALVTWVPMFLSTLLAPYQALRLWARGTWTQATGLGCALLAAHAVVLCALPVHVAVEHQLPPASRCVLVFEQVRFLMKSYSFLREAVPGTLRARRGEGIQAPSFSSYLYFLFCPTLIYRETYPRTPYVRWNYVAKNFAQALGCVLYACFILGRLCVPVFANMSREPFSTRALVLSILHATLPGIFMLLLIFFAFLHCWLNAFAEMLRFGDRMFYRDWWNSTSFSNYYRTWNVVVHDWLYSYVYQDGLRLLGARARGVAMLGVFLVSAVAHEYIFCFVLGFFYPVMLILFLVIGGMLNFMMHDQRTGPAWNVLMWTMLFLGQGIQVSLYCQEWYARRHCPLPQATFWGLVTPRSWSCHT
Description: cryo-EM structure. Type of data set: biochemical.

The data set “cryo-EM structure” deals with the molecule itself. Description: cryo-EM structure.

`CC(C)c1cccc(C(C)C)c1NC(=O)NCC1(c2ccc(N(C)C)cc2)CCCC1` [nevanimibe]: inhibition at ACAT2 was half-maximal at 0.71 µM (IC50).

B1: human ACAT2 (acyl-CoA:cholesterol acyltransferase 2) (enzyme)
chain: EPGGARLRLQRTEGLGGERERQPCGDGNTETHRAPDLVQWTRHMEAVKAQLLEQAQGQLRELLDRAMREAIQSYPSQDKPLPPPPPGSLSRTQEPSLGKQKVFIIRKSLLDELMEVQHFRTIYHMFIAGLCVFIISTLAIDFIDEGRLLLEFDLLIFSFGQLPLALVTWVPMFLSTLLAPYQALRLWARGTWTQATGLGCALLAAHAVVLCALPVHVAVEHQLPPASRCVLVFEQVRFLMKSYSFLREAVPGTLRARRGEGIQAPSFSSYLYFLFCPTLIYRETYPRTPYVRWNYVAKNFAQALGCVLYACFILGRLCVPVFANMSREPFSTRALVLSILHATLPGIFMLLLIFFAFLHCWLNAFAEMLRFGDRMFYRDWWNSTSFSNYYRTWNVVVHDWLYSYVYQDGLRLLGARARGVAMLGVFLVSAVAHEYIFCFVLGFFYPVMLILFLVIGGMLNFMMHDQRTGPAWNVLMWTMLFLGQGIQVSLYCQEWYARRHCPLPQATFWGLVTPRSWSCHT
On to B1, for which the “stoichiometry N” value in “cryo-EM structure” was determined as 4.
